Data reported in patent US20170157301A1, “LEOLIGIN DERIVATIVES AS SMOOTH MUSCLE CELL PROLIFERATION INHIBITORS” (TECHNISCHE UNIVERSITAET WIEN, priority 2014, published 2017).

What was measured:
SMCs in relation to ECs = assay: activity ratio: efficiency towards SMCs / efficiency towards ECs; format: cell-based; details: for a.r. code: activity ratio class, order in Table 1 follows the calculated values
rat aortic SMCs = assay: vascular SMC proliferation (PDGF-induced, resazurin conversion); format: cell-based
Experimental: For determination of vascular SMC proliferation, 0.5×10^4 viable rat aortic SMCs per well were seeded in SMC growth medium (DMEM/F12 medium with 20% serum, 30 μg/mL Gentamicin and 15 ng/mL Amphotericin) in 96-well plates. 24 h later, the medium was removed, the cells were washed once with SMC starvation medium (DMEM/F12 medium with 0.1% serum, 0.2% BSA, 30 μg/mL Gentamicin and 15 ng/mL Amphotericin) and incubated in starvation medium for further 24 h.
The quiescent cells were then pretreated for 30 min with the test compounds and induced to proliferate with 20 ng/mL platelet-derived growth factor (PDGF). Unstimulated cells were utilized for normalization and estimation of the basal level of proliferation. The final concentration of the solvent vehicle, dimethyl sulfoxide (DMSO), was the same (0.1%) in all wells. 48 h later, the SMC proliferation was quantified by resazurin dye conversion for 2 h as previously described (H. Joa et al., J. Nat. Prod. 74(6), 1513-6 (2011)).

[1] = system: HUVECtert immortalized human umbilical vein endothelial cells; assay: endothelial cell proliferation (resazurin); format: cell-based
Experimental: For determination of endothelial cell proliferation, 0.5×10^4 HUVECtert immortalized human umbilical vein endothelial cells (H. B. Schiller et al., Mol. Biol. Cell. 20(3), 745-756 (2009)) were seeded in 96-well plates for 24 h in HUVEC Complete Medium (EBM™ growth medium supplemented with 10% fetal bovine serum, EBM™ SingleQuots (Lonza, Basel, Switzerland), 100 U/mL benzylpenicillin, 100 μg/mL streptomycin, and 1% amphotericin). Afterwards, the medium was exchanged with fresh HUVEC Complete Medium and cells were treated with the indicated compounds for 48 h. After the end of the incubation period, the medium was removed, the cells were washed once with 200 μL/well PBS, and treated with 150 μL HUVEC Complete Medium containing 10 μg/mL resazurin. 2 h later, the fluorescence was measured at a wavelength of 580 nm, with excitation wavelength 535 nm in a 96-well plate reader (Tecan GENios Pro; Tecan Group Ltd., Mannedorf, Switzerland).

SMCs [2] = assay: IC50 of Leoligin for SMCs (A. Knolz, Master's Thesis, University of Innsbruck, 2008); format: cell-based
SMCs [3] = details: cited from earlier work
ECs = details: cited from earlier work

Compound: COc1ccc(C[C@H]2CO[C@H](c3cc(OC)c(OC)c(OC)c3)[C@H]2COC(=O)C2CC2)cc1OC [Example 41, ((2S,3R,4R)-4-(3,4-dimethoxybenzyl)-2-(3,4,5-trimethoxyphenyl)tetrahydro-furan-3-yl)methyl cyclopropanecarboxylate]
- a.r. code (SMCs in relation to ECs): AA (a.r. ≧ 2.0)

Compound: C=CCOC[C@H]1[C@@H](Cc2ccc(OC)c(OC)c2)CO[C@@H]1c1ccc(OC)c(OC)c1 [Example 42, (2S,3R,4R)-3-((allyloxy)methyl)-4-(3,4-dimethoxybenzyl)-2-(3,4-dimethoxy-phenyl)tetrahydrofuran]
- a.r. code (SMCs in relation to ECs): AAA (a.r. ≧ 5.0)

Compound: C#CCOC[C@H]1[C@@H](Cc2ccc(OC)c(OC)c2)CO[C@@H]1c1ccc(OC)c(OC)c1 [Example 43, (2S,3R,4R)-4-(3,4-dimethoxybenzyl)-2-(3,4-dimethoxyphenyl)-3-((prop-2-yn-1-yloxy)methyl)tetrahydrofuran]
- a.r. code (SMCs in relation to ECs): A (a.r. ≧ 1.50)

Compound: C/C=C(/C)C(=O)OC[C@H]1[C@@H](Cc2ccc(OC)c(OC)c2)CO[C@@H]1c1ccc(OC)c(OC)c1 [Leoligin, (Z)-((2S,3R,4R)-4-(3,4-dimethoxybenzyl)-2-(3,4-dimethoxyphenyl)tetrahydro-furan-3-yl)methyl 2-methylbut-2-enoate]
- Efficiency towards SMCs (rat aortic SMCs; 1 minus fraction of surviving SMCs): 1-0.81 = 0.19
- Percentage of surviving SMCs (rat aortic SMCs; rat aortic SMCs, 20 ng/mL PDGF, 48 h, resazurin): 0.81 (81%)
- Efficiency towards ECs ([1]; 1 minus fraction of surviving ECs): 1-0.51 = 0.49
- Percentage of surviving ECs ([1]; HUVECtert, 48 h, resazurin): 0.51 (51%)
- inverse value of activity ratio (factor of selective inhibition of ECs relative to SMCs) (SMCs in relation to ECs; inverse of 0.39): approximately 2.5
- inverse value of IC50 ratio (measure for selective inhibition of ECs compared to SMCs) (SMCs [2]; from cited IC50 values): 3.0
- IC50 ratio (measure for selective inhibition of SMCs compared to ECs) (SMCs [2]; from cited IC50 values for ECs and SMCs): 0.33
- IC50 (SMCs [3]): 54.5 µM
- IC50 (ECs): 17.9 µM
